Patent publication US11422106B2, “Using 4-acetoxyphenol as a substrate for modular hydrolase biosensors” (United States Government, as represented by the …, priority 2019, dated 2022)
Several values for one entry are separate records, joined by “and”; a condition that tells them apart may be missing. Identical values can stand only once.

Tests used:
[1] = target: T1, Acetylcholinesterase (AchE) (Electrophorus electricus, UniProt O42275); assay: Amperometric activity assay of immobilized AchE electrode with 4-acetoxyphenol (steady state current at 0.35 V); format: biochemical, Electrophorus electricus (electric eel); settings: substrate 4-acetoxyphenol
T1 construct: purchased Sigma-Aldrich Type VI-S (catalogue number not given)
Description: Acetylcholinesterase (E.C. 3.1.1.7) Type VI-S from Electrophorus electricus (electric eel) with activity of 217 U mg^−1 protein, was purchased from Sigma-Aldrich. 4-Acetoxyphenol was purchased from Combi-Blocks (San Diego, Calif., USA). All other chemicals were purchased from Sigma-Aldrich (reagent grade) and used as received.
A mixture of BSA and AchE (containing 0.50 μg, or 0.11 U of the AchE, 8 μg of BSA in 10 μl of 0.06 M phosphate, pH 7.0) was spread on the working electrode of carbon SPE (RRPE1002C). The proteins were deposited on the electrode surface by air drying, and then crosslinked by adding 10 μl of 0.0021% of glutaraldehyde solution in water. The electrode was air dried at room temperature for 16 h to complete the crosslinking. To hydrate the sensor, it was stored in 0.1 M Tris-HCl, pH 7.0 for >24 h at room temperature before use.
Electrochemical evaluations were carried out in the low volume SPE cell (Pine Research Instrumentation, Durham, N.C., USA), and the conditions controlled by a DY2013 Potentiostat with DY2000 software (Digi-Ivy, Inc. Austin, Tex., USA). The working potential was set with the Ag/AgCl electrode on the SPE as the reference. […]
All evaluations were carried out at 22±2° C. The current in amperometric determination was recorded for 150 s. […] The average of the readings between 120 s and 150 s was used as the steady-state current. […]

[2] = target: T1, Acetylcholinesterase (AchE); format: biochemical, Electrophorus electricus (electric eel)
[3] = target: T1, Acetylcholinesterase (AchE); assay: Speciation of As(III)/As(V) mixtures with the AchE sensor versus ICP-AES; format: biochemical, Electrophorus electricus (electric eel); settings: 5 μM As(V) mixed with 0-20 μM As(III), 0.1 M Tris-HCl pH 8.0
[4] = Hydrolase activity of commercial enzymes with 4-acetoxyphenol as substrate; format: biochemical
Description: Instead of, or in addition to, AchE, the preferred biosensors of the present subject matter can utilize a wide range of enzyme(s). Table 1 set forth below lists a representative list of enzymes suitable for use in the biosensors of the present subject matter. The preferred biosensors can utilize one or more of these enzyme(s) instead of, or in addition to, AchE. It is also contemplated that other enzyme(s) could potentially be used in the biosensors of the present subject matter.

T1 sequence (O42275 24-633): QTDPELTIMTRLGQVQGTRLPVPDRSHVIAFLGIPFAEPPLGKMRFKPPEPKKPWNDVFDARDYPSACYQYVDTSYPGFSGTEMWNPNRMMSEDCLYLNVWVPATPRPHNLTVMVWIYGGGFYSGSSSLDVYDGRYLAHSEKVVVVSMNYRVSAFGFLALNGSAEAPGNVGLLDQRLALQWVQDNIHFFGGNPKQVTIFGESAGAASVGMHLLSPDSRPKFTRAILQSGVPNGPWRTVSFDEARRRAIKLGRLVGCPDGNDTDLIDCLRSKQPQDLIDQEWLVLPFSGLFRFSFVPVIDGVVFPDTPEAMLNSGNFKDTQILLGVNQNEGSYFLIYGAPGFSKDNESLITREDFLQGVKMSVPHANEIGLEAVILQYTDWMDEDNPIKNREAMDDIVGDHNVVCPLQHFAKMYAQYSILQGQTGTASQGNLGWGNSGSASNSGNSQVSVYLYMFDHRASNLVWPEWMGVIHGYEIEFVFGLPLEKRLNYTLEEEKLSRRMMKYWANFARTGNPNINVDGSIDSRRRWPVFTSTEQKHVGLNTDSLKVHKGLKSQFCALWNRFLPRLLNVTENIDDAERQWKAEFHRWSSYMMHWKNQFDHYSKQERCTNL

In the case of CC(=O)Oc1ccc(O)cc1 [4-acetoxyphenol], the “Vmax (Michaelis-Menten fit of steady state current)” value [1] is reported as 24.2±1.1 μA and the “current density corresponding to Vmax” value [1] is reported as 121+5.25 μA cm^−2.

For sodium arsenite [As(III)], the “estimated inhibition (from linear regression)” value [2] was 50.7±5.7%, the inhibition [2] was “about 55%” and the maximum inhibition [2] was 69.3% and 65.7%. For the same molecule, the IMax ([2]; pH 8) was 70-75%, the Ki ([2]; pH 8) was 61.6 µM and the “k1 (reversible pseudo-first order model)” value ([2]; pH 8) was 2840 M⁻¹ min⁻¹. For the same molecule, the “second (dissociation) rate constant of the reversible pseudo-first order model, symbol not given” value ([2]; pH 8) was 0.175 M⁻¹.

For O.O.O.O.O.O.O.O=[As]([O-])([O-])O.[Na+].[Na+] [As(V), Na2HAsO4.7H2O], the “sensitivity of the AchE sensor to the species” value [3] was “not sensitive”.

B1: Lipolase 100 L: Lipase, Novozyme, Thermomyces lanuginosus (protein, UniProt O59952 23-291, looked up)
Lipase: EVSQDLFNQFNLFAQYSAAAYCGKNNDAPAGTNITCTGNACPEVEKADATFLYSFEDSGVGDVTGFLALDNTNKLIVLSFRGSRSIENWIGNLNFDLKEINDICSGCRGHDGFTSSWRSVADTLRQKVEDAVREHPDYRVVFTGHSLGGALATVAGADLRGNGYDIDVFSYGAPRVGNRAFAEFLTVQTGGTLYRITHTNDIVPRLPPREFGYSHSSPEYWIKSGTLVPVTRNDIVKIEGIDATGGNNQPNIPDIPAHLWYFGLIGTCL
modifications: commercial Novozymes enzyme preparation
notes: Lipase, Novozyme, Thermomyces lanuginosus
With B1 the “Activity with 4-Acetoxyphenol” value [4] was 1.59 µmol/mg/min.

B2: Alcalase 2.5 Type DX: Subtilisin, Novozyme, Bacillus licheniformis (protein, UniProt P00780 106-379, looked up)
Subtilisin Carlsberg: AQTVPYGIPLIKADKVQAQGFKGANVKVAVLDTGIQASHPDLNVVGGASFVAGEAYNTDGNGHGTHVAGTVAALDNTTGVLGVAPSVSLYAVKVLNSSGSGSYSGIVSGIEWATTNGMDVINMSLGGASGSTAMKQAVDNAYAKGVVVVAAAGNSGSSGNTNTIGYPAKYDSVIAVGAVDSNSNRASFSSVGAELEVMAPGAGVYSTYPTNTYATLNGTSMASPHVAGAAALILSKHPNLSASQVRNRLSSTATYLGSSFYYGKGLINVEAAAQ
modifications: commercial Novozymes enzyme preparation
notes: Subtilisin, Novozyme, Bacillus licheniformis
With B2 the “Activity with 4-Acetoxyphenol” value [4] was 1.93 µmol/mg/min.

B3: Palatase 20000 L: Lipase, Novozyme, Rhizomucor miehei (protein, UniProt P19515 95-363, looked up)
Lipase: SIDGGIRAATSQEINELTYYTTLSANSYCRTVIPGATWDCIHCDATEDLKIIKTWSTLIYDTNAMVARGDSEKTIYIVFRGSSSIRNWIADLTFVPVSYPPVSGTKVHKGFLDSYGEVQNELVATVLDQFKQYPSYKVAVTGHSLGGATALLCALDLYQREEGLSSSNLFLYTQGQPRVGDPAFANYVVSTGIPYRRTVNERDIVPHLPPAAFGFLHAGEEYWITDNSPETVQVCTSDLETSDCSNSIVPFTSVLDHLSYFGINTGLCT
In the case of B3, the “Activity with 4-Acetoxyphenol” value [4] is reported as 3.43 µmol/mg/min.
